Data from paper PMC5967236 (Angewandte Chemie (International ed. in English), 2017).

Key:
[1] = system: IKZF family of linage specific transcription factors; settings: cited from earlier work
[2] = system: all cellular proteins in MOLM-13 cells; assay: whole-cell lysate proteomics; type: cell-based, human; settings: 100 nM for 2 hours
[3] = system: human AML lines (EOL-1, MOLM-13, MV4;11); assay: viability of human AML lines, 7 days; type: cell-based
MOLM-13 = assay: viability of MOLM-13; type: cell-based, human; settings: MOLM-13 transduced with wild type BRD9
MM.1S line = assay: activity in MM.1S line; type: cell-based; settings: multiple myelome derived line
[4] = system: IKZF family of linage specific transcription factors; assay: activity against IKZF family transcription factors; type: cell-based
BRD4 = BRD4 (Homo sapiens, UniProt O60885); assay: BRD4 immunoblot in MOLM-13 cells; settings: MOLM-13, 4hr, western blot
BRD7 = molecular target: T1, BRD7 (Homo sapiens, UniProt Q9NPI1); assay: BRD7 immunoblot in MOLM-13 cells; settings: MOLM-13, 4hr, western blot
T1 sequence (Q9NPI1 1-651): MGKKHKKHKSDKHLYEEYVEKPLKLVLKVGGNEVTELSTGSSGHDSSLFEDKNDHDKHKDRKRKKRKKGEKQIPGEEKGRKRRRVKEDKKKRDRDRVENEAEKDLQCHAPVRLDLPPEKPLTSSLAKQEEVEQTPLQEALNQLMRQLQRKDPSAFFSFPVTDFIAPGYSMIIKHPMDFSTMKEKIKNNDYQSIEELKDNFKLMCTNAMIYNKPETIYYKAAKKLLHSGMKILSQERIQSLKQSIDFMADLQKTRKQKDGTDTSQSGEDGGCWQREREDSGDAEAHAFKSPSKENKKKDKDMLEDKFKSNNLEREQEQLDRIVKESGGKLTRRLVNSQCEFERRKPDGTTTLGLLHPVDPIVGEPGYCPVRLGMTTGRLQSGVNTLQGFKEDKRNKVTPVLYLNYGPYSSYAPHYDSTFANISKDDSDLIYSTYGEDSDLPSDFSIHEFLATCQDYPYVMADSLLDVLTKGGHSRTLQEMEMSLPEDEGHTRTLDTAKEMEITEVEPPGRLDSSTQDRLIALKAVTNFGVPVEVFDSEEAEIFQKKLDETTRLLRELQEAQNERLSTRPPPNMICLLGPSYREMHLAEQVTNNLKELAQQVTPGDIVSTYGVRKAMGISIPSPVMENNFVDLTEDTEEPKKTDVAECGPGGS

| SMILES | activity against IKZF family, earlier report [1] | change in BRD4 or BRD7 levels [2] | difference in levels of other proteins (99% of proteins) [2] | anti-proliferative effect ([3]; EOL-1, MOLM-13, MV4;11, 7 days) | half-maximal anti-proliferative concentration ([3]; human AML lines) | sensitivity with viral expression of exogenous wild type BRD9 (MOLM-13) | activity in MM.1S (MM.1S line) | activity against IKZF family [4] | off target degradation activity on BRD4 (BRD4) | off target degradation activity on BRD7 (BRD7) |
| --- | --- | --- | --- | --- | --- | --- | --- | --- | --- | --- |
| Cc1sc2c(c1C)C(c1ccc(Cl)cc1)=N[C@@H](CC(=O)NCCCCNC(=O)COc1cccc3c1C(=O)N(C1CCC(=O)NC1=O)C3=O)c1nnc(C)n1-2 (stereo partly shown) [dBET-1] | not previously observed | – | – | – | – | – | – | – | – | – |
| COc1cc(-c2cn(C)c(=O)c3cnccc23)cc(OC)c1CN(C)CC(=O)NCCOCCOCCNc1cccc2c1C(=O)N(C1CCC(=O)NC1=O)C2=O (stereo not shown) [dBRD9] | – | no significant change | less than 0.30 fold | potent anti-proliferative effect | low nanomolar | shifted sensitivity, but to an intermediate degree | dBRD9 sensitive | retain activity | not detectable | not detectable |
